According to ChEMBL document CHEMBL3286326, “Chiral Resolution and Serendipitous Fluorination Reaction for the Selective Dopamine D3 Receptor Antagonist BAK2-66” (ACS Med Chem Lett, 2014):

Key:
[1] = target: T1, D(4) dopamine receptor (Homo sapiens, UniProt P21917); test: Displacement of [3H]N-methylspiperone from human dopamine D4 receptor expressed in human HEK293 cell membrane for 1 hr by liquid scintillation counting analysis; assay type: cell membranes
T1 sequence (P21917 whole entry): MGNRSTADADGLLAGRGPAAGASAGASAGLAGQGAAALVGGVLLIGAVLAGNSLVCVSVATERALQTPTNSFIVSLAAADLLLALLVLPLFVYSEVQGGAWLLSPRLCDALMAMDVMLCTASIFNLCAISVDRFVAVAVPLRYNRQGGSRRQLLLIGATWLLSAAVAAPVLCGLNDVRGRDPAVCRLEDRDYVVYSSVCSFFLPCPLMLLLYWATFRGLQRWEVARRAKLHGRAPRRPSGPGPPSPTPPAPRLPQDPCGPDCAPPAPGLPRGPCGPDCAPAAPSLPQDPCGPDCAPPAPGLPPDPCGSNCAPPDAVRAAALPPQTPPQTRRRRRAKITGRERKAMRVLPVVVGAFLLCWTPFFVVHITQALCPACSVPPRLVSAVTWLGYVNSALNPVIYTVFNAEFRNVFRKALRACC

[2] = target: D(2) dopamine receptor (Homo sapiens, UniProt P14416); test: Displacement of [3H]N-methylspiperone from human dopamine D2 receptor expressed in human HEK293 cell membrane for 1 hr by liquid scintillation counting analysis; assay type: cell membranes
Chain of D(2) dopamine receptor (P14416 whole entry): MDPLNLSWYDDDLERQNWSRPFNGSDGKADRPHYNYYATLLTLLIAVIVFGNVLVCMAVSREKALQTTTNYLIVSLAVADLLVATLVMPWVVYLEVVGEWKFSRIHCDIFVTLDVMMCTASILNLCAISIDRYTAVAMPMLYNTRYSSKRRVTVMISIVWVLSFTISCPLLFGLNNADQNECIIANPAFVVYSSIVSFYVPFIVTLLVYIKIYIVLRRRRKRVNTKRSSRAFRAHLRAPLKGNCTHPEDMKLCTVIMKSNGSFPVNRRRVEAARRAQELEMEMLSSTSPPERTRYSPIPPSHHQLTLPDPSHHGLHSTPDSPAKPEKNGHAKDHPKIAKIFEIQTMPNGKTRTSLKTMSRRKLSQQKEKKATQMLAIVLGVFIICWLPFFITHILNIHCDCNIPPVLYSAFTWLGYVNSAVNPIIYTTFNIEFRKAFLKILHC

[3] = target: D(3) dopamine receptor (Homo sapiens, UniProt P35462); test: biochemical
Chain of D(3) dopamine receptor (P35462 whole entry): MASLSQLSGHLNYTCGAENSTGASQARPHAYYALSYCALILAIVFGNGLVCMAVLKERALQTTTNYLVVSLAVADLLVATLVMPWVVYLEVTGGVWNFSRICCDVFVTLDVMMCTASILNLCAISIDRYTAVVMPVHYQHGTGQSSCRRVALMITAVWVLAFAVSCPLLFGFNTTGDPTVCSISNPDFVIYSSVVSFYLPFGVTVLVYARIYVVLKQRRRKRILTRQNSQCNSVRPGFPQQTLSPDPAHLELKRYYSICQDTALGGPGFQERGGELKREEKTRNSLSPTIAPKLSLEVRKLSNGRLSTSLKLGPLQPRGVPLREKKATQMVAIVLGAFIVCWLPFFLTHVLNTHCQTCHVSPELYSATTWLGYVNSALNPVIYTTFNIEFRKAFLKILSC
Description: Displacement of [3H]N-methylspiperone from human dopamine D3 receptor expressed in human HEK293 cell membrane for 1 hr by liquid scintillation counting analysis

Ki [1]: > 3 µM
Ki [2]: 7.4 µM
Ki [3]: 0.56 µM
Structure (SMILES): O=C(NCCC(CF)N1CCN(c2cccc(Cl)c2Cl)CC1)c1cc2ccccc2o1 (stereo not drawn)
